One compound from patent US20250326839A1, “TREATMENT OF DISEASES RELATED TO COLONY-STIMULATING FACTOR 1 RECEPTOR DYSFUNCTION USING TREM2 AGONISTS” (Vigil Neuroscience, Inc., priority 2020, published 2025) can be followed below.

The test system of the test is human monocyte-derived macrophages (hMDMs). In words: Example 2E: CSF1R inhibition by PLX5622, confluence and morphology (Incucyte). Type of test: cell-based. As to conditions: PLX5622 1 μM relative to vehicle alone. How it is done:
PBMCs were isolated from fresh, whole blood from human donors. CD14+ monocytes were isolated using positive magnetic selection (Miltenyi). Cells were plated in UpCell® low-adhesion plates and incubated in culture media with 50 ng/mL CSF1 for 48 hours. After 48 hours, cells were non-enzymatically harvested and plated at 25,000 cells per well in cell culture plates coated with 10 μg/mL of either Ab-3 or a matching isotype control. PLX5622 was immediately added to the cultures to 1 μM, and plates were incubated in a humidified incubator at 37 C, 5% CO2 for an additional 96 hours. During incubation, cells were monitored every two hours using an Incucyte S3® analyzer (2 fields of view per well, imaged at 10×). Confluence was measured using built in S3 software, while area and eccentricity (cell shape) were measured using the built in “Cell By Cell” analysis software. Significance was determined by Student's T-test, two-tailed in Graphpad Prism.

As to `COc1ncc(F)cc1CNc1ccc(Cc2c[nH]c3ncc(C)cc23)c(F)n1` [PLX5622, reference compound], the confluence entry (FIG. 5) is recorded as “significant reduction in confluence”. Further, under “FIG. 6”, the “cells with “high area, high eccentricity” (ramified)” value is “significant reduction in cells with “high area, high eccentricity””.
